Drawing on patent US20050170431A1, “PYK2 crystal structure and uses” (Plexxikon, Inc., priority 2003, published 2005), this text covers IC50 for two molecules.

This assay concerns the target T1, Pyk2 kinase domain residues 419 to 691 (Homo sapiens, UniProt Q14289).
T1 construct: PYK2 kinase domain I420-M691 (not including first 21 aa in); made in house; host or cells: E. coli BL21 (DE3) pLysS
Kind of assay: PYK2 kinase activity assay in AlphaScreen, inhibition by ATP analogs. The format is biochemical. Particulars: Pyk2 at 8 ng/well and ATP at 10 uM; read-out: affinity with Pyk2. The method, then: As an exemplary kinase assay, the kinase activity of PYK2 was measured in AlphaScreening (Packard BioScience). The kinase buffer (HMNB) contains HEPES 50 mM at pH7.2, Mg/Mn 5 mM each, NP-40 0.1%, and BSA at final 50 ug/ml. AlphaScreening is conducted as described by the manufacturer. In brief, the kinase reaction is performed in 384-well plate in 25 ul volume. The substrate is biotin-(E4Y)3 at final concentration of 1 nM. The final concentration of ATP is 10 uM. For compound testing the final DMSO concentration is 1%. The reaction is incubated in 31° C. for 1 hour.
The Pyk2 kinase domain residues 419 to 691 is an active kinase in AlphaScreen. […] Inhibition by ATP analogs was tested with Pyk2 at 8 ng/well and ATP at 10 uM. […] Adenosine and AMP-PCP have little effect on PYK2 in the concentration tested.

T1 sequence (Q14289 420-691): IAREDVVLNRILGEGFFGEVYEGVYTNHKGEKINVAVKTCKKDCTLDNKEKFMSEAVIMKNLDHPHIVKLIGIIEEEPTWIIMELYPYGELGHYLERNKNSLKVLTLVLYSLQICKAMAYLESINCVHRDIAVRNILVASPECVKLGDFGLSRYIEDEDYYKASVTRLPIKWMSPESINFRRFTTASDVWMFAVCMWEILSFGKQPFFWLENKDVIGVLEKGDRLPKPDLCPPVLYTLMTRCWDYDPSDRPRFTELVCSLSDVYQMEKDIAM

`Nc1ncnc2c1ncn2[C@@H]1O[C@H](COP(=O)(O)OP(=O)(O)OP(O)(O)=S)[C@@H](O)[C@H]1O` [ATP-g-S]: the IC50 is 14 µM.

On to `Nc1ncnc2c1ncn2[C@@H]1O[C@H](COP(=O)(O)OP(=O)(O)O)[C@@H](O)[C@H]1O` [ADT, ADP], for which the IC50 came out at 14 µM.
